In the experiment the target is T1, LHRH (Rattus norvegicus, UniProt P30969).
T1 construct: endogenous in cells; host or cells: rat pituitary cells (own knowledge of the cited Haviv 1989 method)
T1 sequence (P30969 1-327): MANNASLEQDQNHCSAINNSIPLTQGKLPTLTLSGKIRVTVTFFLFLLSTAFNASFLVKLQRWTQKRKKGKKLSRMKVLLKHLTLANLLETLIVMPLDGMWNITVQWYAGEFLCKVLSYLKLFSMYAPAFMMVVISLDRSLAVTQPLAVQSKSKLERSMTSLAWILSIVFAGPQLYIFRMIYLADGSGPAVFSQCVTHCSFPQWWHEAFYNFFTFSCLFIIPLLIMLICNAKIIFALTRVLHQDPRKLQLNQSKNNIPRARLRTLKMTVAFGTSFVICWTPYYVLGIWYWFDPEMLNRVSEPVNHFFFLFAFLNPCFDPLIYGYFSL
In words: in vitro test for LHRH antagonist potency (pA2). The class given is cell-based. The settings on record: negative logarithm of the antagonist concentration required to shift the response curve produced by the agonist leuprolide to two-fold higher concentration. In a few lines: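 Antagonism read against the agonist leuprolide on rat LHRH receptor; value is pA2, the −log of antagonist concentration that doubles the agonist concentration needed for the same response.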

Non-standard residues stand in square brackets, D forms with d. Residues, ends and D or L forms follow the SMILES beside them. Groups on a side chain read outwards from the residue. *: point of attachment. Shikimoyl = O=C(C1=C[C@@H](O)[C@@H](O)[C@H](O)C1)*; dPhe(4-Cl) = N[C@H](Cc1ccc(Cl)cc1)C(=O)O; d1Nal = N[C@H](Cc1cccc2ccccc12)C(=O)O; d2Nal = N[C@H](Cc1ccc2ccccc2c1)C(=O)O; NMeY = CN[C@@H](Cc1ccc(O)cc1)C(=O)O; d3Pal = N[C@H](Cc1cccnc1)C(=O)O; Nicotinoyl = O=C(c1cccnc1)*

As usually defined, the Kb is the affinity of an antagonist, worked out from how it opposes an agonist. Turning to `CC(C)C[C@H](NC(=O)[C@@H](CCCCNC(=O)c1cccnc1)NC(=O)[C@H](Cc1ccc(O)cc1)N(C)C(=O)[C@H](CO)NC(=O)[C@@H](Cc1cccnc1)NC(=O)[C@@H](Cc1ccc(Cl)cc1)NC(=O)[C@@H](Cc1ccc2ccccc2c1)NC(=O)CNC(=O)C1=C[C@@H](O)[C@@H](O)[C@H](O)C1)C(=O)N[C@@H](CCCNC(=N)N)C(=O)N1CCC[C@H]1C(=O)N[C@H](C)C(N)=O` [Example 15a, N-Shikimyl-Gly-D2Nal-D4ClPhe-D3Pal-Ser-NMeTyr-DLys(Nic)-Leu-Arg-Pro-DAlaNH2] (Shikimoyl-G[d2Nal][dPhe(4-Cl)][d3Pal]S[NMeY][dK](Nicotinoyl)LRP[dA]-NH2), the antagonist equilibrium constant (Kb) was 63.1 pM.

On to `CC(C)C[C@H](NC(=O)[C@@H](CCCCNC(=O)CNC(=O)c1cccnc1)NC(=O)[C@H](Cc1ccc(O)cc1)N(C)C(=O)[C@H](CO)NC(=O)[C@@H](Cc1cccnc1)NC(=O)[C@@H](Cc1ccc(Cl)cc1)NC(=O)[C@@H](Cc1ccc2ccccc2c1)NC(=O)CNC(=O)C1=C[C@@H](O)[C@@H](O)[C@H](O)C1)C(=O)N[C@@H](CCCNC(=N)N)C(=O)N1CCC[C@H]1C(=O)N[C@H](C)C(N)=O` [Example 15b, N-Shikimyl-Gly-D2Nal-D4ClPhe-D3Pal-Ser-NMeTyr-DLys(Gly-Nic)-Leu-Arg-Pro-DAlaNH2] (Shikimoyl-G[d2Nal][dPhe(4-Cl)][d3Pal]S[NMeY][dK]([Gly-Nicotinoyl])LRP[dA]-NH2), for which the Kb is 20.9 pM.

As to `CC(C)C[C@H](NC(=O)[C@@H](CCCCNC(=O)[C@@H](CO)NC(=O)c1cccnc1)NC(=O)[C@H](Cc1ccc(O)cc1)N(C)C(=O)[C@H](CO)NC(=O)[C@@H](Cc1cccnc1)NC(=O)[C@@H](Cc1ccc(Cl)cc1)NC(=O)[C@@H](Cc1ccc2ccccc2c1)NC(=O)CNC(=O)C1=C[C@@H](O)[C@@H](O)[C@H](O)C1)C(=O)N[C@@H](CCCNC(=N)N)C(=O)N1CCC[C@H]1C(=O)N[C@H](C)C(N)=O` [Example 15c, N-Shikimyl-Gly-D2Nal-D4ClPhe-D3Pal-Ser-NMeTyr-DLys(DSer-Nic)-Leu-Arg-Pro-DAlaNH2] (Shikimoyl-G[d2Nal][dPhe(4-Cl)][d3Pal]S[NMeY][dK]([dS-Nicotinoyl])LRP[dA]-NH2), the Kb is 10 pM. As to `CC(C)C[C@H](NC(=O)[C@@H](CCCCNC(=O)CNC(=O)C1=C[C@@H](O)[C@@H](O)[C@H](O)C1)NC(=O)[C@H](Cc1ccc(O)cc1)N(C)C(=O)[C@H](CO)NC(=O)[C@@H](Cc1cccnc1)NC(=O)[C@@H](Cc1ccc(Cl)cc1)NC(=O)[C@@H](Cc1ccc2ccccc2c1)NC(=O)CNC(=O)C1=C[C@@H](O)[C@@H](O)[C@H](O)C1)C(=O)N[C@@H](CCCNC(=N)N)C(=O)N1CCC[C@H]1C(=O)N[C@H](C)C(N)=O` [Example 15d, N-Shikimyl-Gly-D2Nal-D4ClPhe-D3Pal-Ser-NMeTyr-DLys(Gly-Shik)-Leu-Arg-Pro-DAlaNH2] (Shikimoyl-G[d2Nal][dPhe(4-Cl)][d3Pal]S[NMeY][dK]([Gly-Shikimoyl])LRP[dA]-NH2), the Kb was 17.8 pM. Regarding `CC(C)C[C@H](NC(=O)[C@@H](CCCCNC(=O)C1=C[C@@H](O)[C@@H](O)[C@H](O)C1)NC(=O)[C@H](Cc1ccc(O)cc1)N(C)C(=O)[C@H](CO)NC(=O)[C@@H](Cc1cccc2ccccc12)NC(=O)[C@@H](Cc1ccc(Cl)cc1)NC(=O)[C@@H](Cc1ccc2ccccc2c1)NC(=O)CNC(=O)C1=C[C@@H](O)[C@@H](O)[C@H](O)C1)C(=O)N[C@@H](CCCNC(=N)N)C(=O)N1CCC[C@H]1C(=O)N[C@H](C)C(N)=O` [Example 16, N-Shikimyl-Gly-D2Nal-D4ClPhe-D 1Nal-Ser-NMeTyr-DLys(Shik)-Leu-Arg-Pro-DAlaNH2] (Shikimoyl-G[d2Nal][dPhe(4-Cl)][d1Nal]S[NMeY][dK](Shikimoyl)LRP[dA]-NH2), the antagonist dissociation constant (Kb) was 28.8 pM.
